Results on 5 compounds are retold here after ChEMBL document CHEMBL3588790, “Identification of p-hydroxybenzyl alcohol, tyrosol, phloretin and its derivate phloridzin as tyrosinase substrates” (Bioorg Med Chem, 2015).

Calls of active or inactive are those of the source. The rule behind the calls is not given here.

In assay [1] the target is T1, Tyrosinase (Agaricus bisporus) (UniProt O42713).
T1 sequence (whole entry): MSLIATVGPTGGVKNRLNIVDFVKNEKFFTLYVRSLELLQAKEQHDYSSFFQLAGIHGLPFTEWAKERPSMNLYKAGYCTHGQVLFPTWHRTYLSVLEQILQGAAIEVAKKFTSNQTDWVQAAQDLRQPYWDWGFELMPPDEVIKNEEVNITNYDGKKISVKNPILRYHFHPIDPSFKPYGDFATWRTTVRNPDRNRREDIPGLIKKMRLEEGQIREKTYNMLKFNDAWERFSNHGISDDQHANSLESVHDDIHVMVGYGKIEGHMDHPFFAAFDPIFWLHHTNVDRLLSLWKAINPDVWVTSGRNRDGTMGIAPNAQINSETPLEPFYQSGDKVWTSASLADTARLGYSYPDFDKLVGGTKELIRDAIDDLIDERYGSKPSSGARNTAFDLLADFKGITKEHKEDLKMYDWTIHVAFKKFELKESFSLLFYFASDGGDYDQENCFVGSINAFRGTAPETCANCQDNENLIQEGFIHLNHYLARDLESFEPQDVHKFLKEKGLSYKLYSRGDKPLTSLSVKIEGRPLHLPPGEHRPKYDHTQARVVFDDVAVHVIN
The assay is described as follows: Activity at mushroom tyrosinase assessed as decrease in absorbance using DOMA as substrate by oxygen consumption assay.

The target in assay [2] is T1, Tyrosinase (Agaricus bisporus). The assay is described as follows: Activity at mushroom tyrosinase by spectrophotometric assay in presence of hydrogen peroxide.
Assay [3] shares this target. The assay is described as follows: Inhibition of monophenolase activity of mushroom tyrosinase using L-tyrosine as substrate at 0.05 mM by spectrophotometric assay.
Assay [4] shares this target. The assay is described as follows: Inhibition of monophenolase activity of mushroom tyrosinase using L-tyrosine as substrate at 0.1 mM by spectrophotometric assay.
For assay [5] the target is unchanged. The assay is described as follows: Inhibition of diphenolase activity of mushroom tyrosinase using L-dopa as substrate at 0.05 mM by spectrophotometric assay.
Assay [6] shares this target. The experiment in a line: Inhibition of diphenolase activity of mushroom tyrosinase using L-dopa as substrate at 0.1 mM by spectrophotometric assay.
For assay [7] the target is unchanged. The assay is described as follows: Activity at mushroom tyrosinase assessed as decrease in absorbance using L-tyrosine as substrate by oxygen consumption assay.
Assay [8] has the same target. The assay is described as follows: Activity at mushroom tyrosinase assessed as decrease in absorbance using L-dopa as substrate by oxygen consumption assay.
For assay [9] the target is unchanged. Particulars: 0.15 mM.
Description: Inhibition of monophenolase activity of mushroom tyrosinase using L-tyrosine as substrate at 0.15 mM by spectrophotometric assay
Assay [10] shares this target. The note with it: 0.15 mM. This is another data set of the same source.
Description: Inhibition of diphenolase activity of mushroom tyrosinase using L-dopa as substrate at 0.15 mM by spectrophotometric assay
Assay [11] has the same target. The experiment in a line: Inhibition of diphenolase activity of mushroom tyrosinase using L-dopa as substrate at 0.5 mM by spectrophotometric assay.
For assay [12] the target is unchanged. The experiment in a line: Inhibition of diphenolase activity of mushroom tyrosinase using L-dopa as substrate at 1 mM by spectrophotometric assay.
Assay [13] has the same target. The experiment in a line: Inhibition of diphenolase activity of mushroom tyrosinase using L-dopa as substrate at 1.5 mM by spectrophotometric assay.
Assay [14] shares this target. The experiment in a line: Inhibition of monophenolase activity of mushroom tyrosinase using L-tyrosine as substrate at 0.2 mM by spectrophotometric assay.
For assay [15] the target is unchanged. The experiment in a line: Inhibition of diphenolase activity of mushroom tyrosinase using L-dopa as substrate at 0.2 mM by spectrophotometric assay.
Assay [16] shares this target. The experiment in a line: Activity at mushroom tyrosinase assessed as decrease in absorbance at 475 nm using L-dopa as substrate by spectrophotometric assay in presence of sodium periodate.
The target is the same in assay [17]. The assay is described as follows: Inhibition of monophenolase activity of mushroom tyrosinase using L-tyrosine as substrate at 3 mM by spectrophotometric assay.
The target is the same in assay [18]. The assay is described as follows: Inhibition of monophenolase activity of mushroom tyrosinase using L-tyrosine as substrate at 6 mM by spectrophotometric assay.
Assay [19] shares this target. The experiment in a line: Inhibition of monophenolase activity of mushroom tyrosinase using L-tyrosine as substrate at 9 mM by spectrophotometric assay.
Assay [20] shares this target. The assay is described as follows: Inhibition of diphenolase activity of mushroom tyrosinase using L-dopa as substrate at 3 mM by spectrophotometric assay.
For assay [21] the target is unchanged. The experiment in a line: Inhibition of diphenolase activity of mushroom tyrosinase using L-dopa as substrate at 6 mM by spectrophotometric assay.
For assay [22] the target is unchanged. The assay is described as follows: Inhibition of diphenolase activity of mushroom tyrosinase using L-dopa as substrate at 9 mM by spectrophotometric assay.

As a reminder, the inhibition is the change of the read-out against control, counted positive when it falls. Read a low inhibition as a weak effect. For `O=C(CCc1ccc(O)cc1)c1c(O)cc(O)cc1O[C@@H]1O[C@H](CO)[C@@H](O)[C@H](O)[C@H]1O`, the outcome in assay [1], in assay [2], in assay [7] and in assay [8] was Active. Moreover, the inhibition in [3] is 9%; in assay [4] it was 34%; in assay [5], 31.4%; in assay [6], 45.3%; in assay [9], 47.7%; in assay [10], 52.7%.

As to `OCCc1ccc(O)cc1`, the result in assay [1], in assay [2], in [7] and in assay [8] was Active. The results for the inhibition in assay [11], in assay [12] and in [13] were 14.3%, 18.7% and 18.3%, respectively.

Consider `O=C(CCc1ccc(O)cc1)c1c(O)cc(O)cc1O`, for which the outcome in [2] and in [16] was Active. Further, the inhibition in [3] was 4.2%; in [4], 17.9%; in assay [14], 48.5%; in assay [5] it was 28.3%; in assay [6], 46.2%; in assay [15], 62.6%.

On to `OCc1ccc(O)cc1`, for which the result in assay [1], in assay [2], in [7] and in assay [8] was Active. Besides, the inhibition in assay [11] came to 15.2%; in [12], 28.4%; in assay [13], 38.9%.

Consider `O=C(O)Cc1ccccc1`, for which the inhibition was found to be 19.7% in assay [17]; 39.4% in [18]; 55.4% in assay [19]; 18.2% in [20]; 41.6% in assay [21]; 58.1% in assay [22].
